The cell lines below were run with O=C(Nc1cc(C(F)(F)F)cc(C(F)(F)F)c1)c1cc(Cl)ccc1O [IMD-0354] + C[C@@H](Oc1cc(-c2cnn(C3CCNCC3)c2)cnc1N)c1c(Cl)ccc(F)c1Cl [Crizotinib] (partner 1 µM) (assay: relative viability (nuclei count vs DMSO), 5 days (fraction); higher = more cells survive). Conditions: first compound 0.04 µM.
Outline: (§1)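 For relative viability, nuclei counts in treated wells were divided by those in vehicle wells. Lung cancer cell lines had been pin-tool dosed in 1536-well plates the day after seeding and cultured for 5 days, then fixed and stained in one step (final 0.05% Triton X-100, 1% formaldehyde, 1 ug/ml Hoechst) and imaged at 4×. Doses were one drug alone or a fixed anchor-drug dose plus five library-drug doses (not always all listed) in √10 steps, and values are duplicate-plate medians.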
SK-LU-1 showed a relative viability of 1.19.
NCI-H838 gave a relative viability of 0.912.
LCLC-103H was tested, and the relative viability was 1.02.
NCI-H520 was tested, and the relative viability was 0.959.
NCI-H2126 showed a relative viability of 1.03.
EMC-BAC-2 showed a relative viability of 0.869.
NCI-H2085 was tested, and the relative viability was 0.613.
Work on HCC-366 yielded a relative viability of 0.586.
For NCI-H1666, the relative viability was 0.867.
For NCI-H596, the relative viability was 0.928.
Work on NCI-H2087 yielded a relative viability of 0.822.
H3255 gave a relative viability of 0.781.
Cell Line COR-L23 has a relative viability of 0.616.
For COR-L 105, the relative viability was 0.856.

Same assay, conditions: first compound 0.1265 µM
Work on NCI-H1993 yielded a relative viability of 0.824.
SK-LU-1 was tested, and the relative viability was 0.682.
NCI-H838 was tested, and the relative viability was 0.776.
LCLC-103H showed a relative viability of 1.18.
Work on NCI-H520 yielded a relative viability of 0.672.
NCI-H2126 was tested, and the relative viability was 0.997.
Cell Line EMC-BAC-2 has a relative viability of 0.677.
Cell Line NCI-H2085 has a relative viability of 0.753.
HCC-366 was tested, and the relative viability was 0.858.
NCI-H1666 gave a relative viability of 1.02.
NCI-H596 was tested, and the relative viability was 1.04.
NCI-H2087 showed a relative viability of 0.827.
With H3255 the relative viability was 0.885.
For COR-L23, the relative viability was 0.532.
In the case of COR-L 105, the relative viability is reported as 0.906.

Same assay, conditions: first compound 0.4 µM
NCI-H1993 was tested, and the relative viability was 0.658.
For SK-LU-1, the relative viability was 0.501.
NCI-H838 was tested, and the relative viability was 0.424.
With LCLC-103H the relative viability was 0.734.
NCI-H520 was tested, and the relative viability was 0.44.
NCI-H2126 showed a relative viability of 0.878.
For EMC-BAC-2, the relative viability was 0.586.
For NCI-H2085, the relative viability was 0.788.
HCC-366 showed a relative viability of 0.225.
For NCI-H1666, the relative viability was 0.94.
NCI-H596 gave a relative viability of 0.858.
Work on NCI-H2087 yielded a relative viability of 0.265.
H3255 gave a relative viability of 0.555.
COR-L23 was tested, and the relative viability was 0.302.
COR-L 105 was tested, and the relative viability was 0.538.

Same assay, conditions: first compound 1.265 µM
With NCI-H1993 the relative viability was 0.508.
SK-LU-1 was tested, and the relative viability was 0.28.
NCI-H838 showed a relative viability of 0.561.
Cell Line LCLC-103H has a relative viability of 0.703.
In the case of NCI-H520, the relative viability is reported as 0.459.
For NCI-H2126, the relative viability was 0.6.
For EMC-BAC-2, the relative viability was 0.415.
NCI-H2085 showed a relative viability of 0.511.
Work on HCC-366 yielded a relative viability of 0.105.
Cell Line NCI-H1666 has a relative viability of 0.251.
NCI-H596 was tested, and the relative viability was 0.955.
NCI-H2087 showed a relative viability of 0.156.
In the case of H3255, the relative viability is reported as 0.338.
COR-L23 showed a relative viability of 0.193.
COR-L 105 showed a relative viability of 0.55.

Same assay, conditions: first compound 4 µM
NCI-H1993 gave a relative viability of 0.557.
SK-LU-1 gave a relative viability of 0.312.
In the case of NCI-H838, the relative viability is reported as 0.279.
Cell Line LCLC-103H has a relative viability of 0.352.
NCI-H520 was tested, and the relative viability was 0.239.
NCI-H2126 showed a relative viability of 0.322.
Cell Line EMC-BAC-2 has a relative viability of 0.27.
Work on NCI-H2085 yielded a relative viability of 0.315.
In the case of HCC-366, the relative viability is reported as 0.0509.
NCI-H1666 showed a relative viability of 0.151.
NCI-H596 gave a relative viability of 0.451.
NCI-H2087 was tested, and the relative viability was 0.152.
With H3255 the relative viability was 0.285.
COR-L23 showed a relative viability of 0.131.
Cell Line COR-L 105 has a relative viability of 0.261.

These cell lines were tested with Cc1cnc(CNC(=O)c2c(=O)c3ccc(N4CCCN(C)CC4)nc3n3c2sc2ccccc23)cn1 [CX-5461] + Nc1ncn([C@H]2C[C@H](O)[C@@H](CO)O2)c(=O)n1 [Decitabine] (partner 2 µM) in the same assay as above. Conditions: first compound 0.01 µM.
Outline: as §1
NCI-H1993 gave a relative viability of 1.37.
In the case of SK-LU-1, the relative viability is reported as 0.722.
Cell Line NCI-H838 has a relative viability of 0.475.
LCLC-103H gave a relative viability of 0.684.
Work on NCI-H520 yielded a relative viability of 0.529.
NCI-H2126 showed a relative viability of 0.573.
EMC-BAC-2 showed a relative viability of 0.97.
For NCI-H2085, the relative viability was 0.58.
Cell Line HCC-366 has a relative viability of 0.37.
NCI-H1666 was tested, and the relative viability was 0.768.
For NCI-H596, the relative viability was 1.14.
For NCI-H2087, the relative viability was 0.277.
For H3255, the relative viability was 0.634.
With COR-L23 the relative viability was 0.424.
COR-L 105 was tested, and the relative viability was 0.668.

Same assay, conditions: first compound 0.03162 µM
Cell Line NCI-H1993 has a relative viability of 0.64.
SK-LU-1 showed a relative viability of 0.597.
For NCI-H838, the relative viability was 0.479.
In the case of LCLC-103H, the relative viability is reported as 0.743.
For NCI-H520, the relative viability was 0.52.
With NCI-H2126 the relative viability was 0.559.
EMC-BAC-2 was tested, and the relative viability was 0.994.
With NCI-H2085 the relative viability was 0.524.
Cell Line HCC-366 has a relative viability of 0.349.
Cell Line NCI-H1666 has a relative viability of 0.671.
NCI-H596 gave a relative viability of 0.994.
With NCI-H2087 the relative viability was 0.306.
H3255 gave a relative viability of 0.611.
COR-L23 showed a relative viability of 0.424.
In the case of COR-L 105, the relative viability is reported as 0.612.

Same assay, conditions: first compound 0.1 µM
NCI-H1993 gave a relative viability of 0.668.
SK-LU-1 was tested, and the relative viability was 0.709.
NCI-H838 gave a relative viability of 0.47.
For LCLC-103H, the relative viability was 0.705.
NCI-H520 showed a relative viability of 0.483.
In the case of NCI-H2126, the relative viability is reported as 0.618.
For EMC-BAC-2, the relative viability was 0.709.
In the case of NCI-H2085, the relative viability is reported as 0.569.
With HCC-366 the relative viability was 0.293.
NCI-H1666 showed a relative viability of 0.737.
Cell Line NCI-H596 has a relative viability of 1.06.
For NCI-H2087, the relative viability was 0.213.
H3255 showed a relative viability of 0.73.
COR-L23 showed a relative viability of 0.371.
COR-L 105 showed a relative viability of 0.609.

Same assay, conditions: first compound 0.3162 µM
For NCI-H1993, the relative viability was 0.29.
With SK-LU-1 the relative viability was 0.754.
With NCI-H838 the relative viability was 0.429.
With LCLC-103H the relative viability was 0.766.
For NCI-H520, the relative viability was 0.465.
In the case of NCI-H2126, the relative viability is reported as 0.64.
In the case of EMC-BAC-2, the relative viability is reported as 0.655.
NCI-H2085 was tested, and the relative viability was 0.563.
HCC-366 was tested, and the relative viability was 0.347.
With NCI-H1666 the relative viability was 0.701.
NCI-H596 was tested, and the relative viability was 1.05.
NCI-H2087 showed a relative viability of 0.288.
COR-L23 was tested, and the relative viability was 0.489.
For COR-L 105, the relative viability was 0.512.

Same assay, conditions: first compound 1 µM
NCI-H1993 showed a relative viability of 0.577.
With SK-LU-1 the relative viability was 0.455.
For NCI-H838, the relative viability was 0.332.
With LCLC-103H the relative viability was 0.707.
Work on NCI-H520 yielded a relative viability of 0.362.
NCI-H2126 gave a relative viability of 0.567.
In the case of EMC-BAC-2, the relative viability is reported as 0.473.
Work on NCI-H2085 yielded a relative viability of 0.517.
HCC-366 was tested, and the relative viability was 0.327.
Work on NCI-H1666 yielded a relative viability of 0.731.
Cell Line NCI-H596 has a relative viability of 0.872.
NCI-H2087 showed a relative viability of 0.188.
H3255 gave a relative viability of 0.624.
COR-L23 showed a relative viability of 0.219.
COR-L 105 was tested, and the relative viability was 0.436.
